Data: ChEMBL document CHEMBL3124913, “Sinugyrosanolide A, an unprecedented C-4 norcembranoid, from the Formosan soft coral Sinularia gyrosa” (Bioorg Med Chem Lett, 2014)
pEC50: −log10 of the molar value. Calls of active or inactive are those of the source. The rule behind the calls is not given here.

Experiments:
P388 = assay: Cytotoxicity against mouse P388 cells by MTT assay; format: functional, cell-based
A549 = assay: Cytotoxicity against human A549 cells by MTT assay; format: functional, cell-based
HT-29 = assay: Cytotoxicity against human HT-29 cells by MTT assay; format: functional, cell-based
Salmonella enteritidis = assay: Antibacterial activity against Salmonella enteritidis ATCC 13076 at 100 ug/ml after 24 hrs; format: functional, organism-based; details: Salmonella enterica subsp. enterica serovar Enteritidis
Serratia marcescens = assay: Antibacterial activity against Serratia marcescens ATCC 25419 at 100 ug/ml after 24 hrs; format: functional, organism-based
Human betaherpesvirus 5 [1] = assay: Antiviral activity against Human cytomegalovirus infected in Human HEL cells assessed as virus-induced cytopathic effect treated 1 hr prior to infection measured after 7 days; format: functional, organism-based; details: Human betaherpesvirus 5, HEL
Human betaherpesvirus 5 [2] = assay: Antiviral activity against Human cytomegalovirus infected in Human HEL cells assessed as virus-induced cytopathic effect at 1 ug/ml treated 1 hr prior to infection measured after 7 days; format: functional, organism-based
Yersinia enterocolitica = assay: Antibacterial activity against Yersinia enterocolitica ATCC 23715 at 100 ug/ml after 24 hrs; format: functional, organism-based
Shigella sonnei = assay: Antibacterial activity against Shigella sonnei ATCC 11060 at 100 ug/ml after 24 hrs; format: functional, organism-based
Klebsiella aerogenes = assay: Antibacterial activity against Enterobacter aerogenes ATCC 13048 at 100 ug/ml after 24 hrs; format: functional, organism-based

EC50 (Human betaherpesvirus 5 [1])	Compound	pEC50 (P388)	pEC50 (A549)	pEC50 (HT-29)	Activity (Salmonella enteritidis)	Activity (Serratia marcescens)	Activity (Human betaherpesvirus 5 [2])	Activity (Yersinia enterocolitica)	Activity (Shigella sonnei)	Activity (Klebsiella aerogenes)
–	CO[C@H](C(=O)[C@@H](O)[C@@H](C)O)[C@@H]1Cc2cc3cc(O[C@H]4C[C@@H](O[C@@H]5C[C@@H](O)[C@H](O)[C@@H](C)O5)[C@H](O)[C@@H](C)O4)c(C)c(O)c3c(O)c2C(=O)[C@H]1O[C@H]1C[C@@H](O[C@@H]2C[C@@H](O)[C@@H](O[C@@H]3C[C@](C)(O)[C@H](O)[C@@H](C)O3)[C@@H](C)O2)[C@H](O)[C@@H](C)O1 [PLICAMYCIN]	7.30	7.22	7.15	–	–	–	–	–	–
> 50 µg/mL	C=C(C)[C@@H]1CC(=O)C[C@H]2C(=O)[C@@H]3[C@@H]4C(=C[C@@H]12)C(=O)O[C@@H]4C[C@]3(C)O	4.93	< 4.70	< 4.70	inactive	inactive	inactive	inactive	inactive	inactive
